Measured values reported in ChEMBL document CHEMBL1158502, “Gomphostenins: two new antimalarial compounds from the leaves of Gomphostemma niveum” (Bioorg Med Chem Lett, 2010).
In brackets after ≈: the same amount, converted by molar mass.

Tests used:
Plasmodium falciparum [1] = experiment: Antiplasmodial activity against chloroquine-resistant Plasmodium falciparum in human B+ erythrocytes assessed as inhibition of schizont maturation after 24 hrs by conventional parasite culture method; format: functional, organism-based
Plasmodium falciparum [2] = experiment: Antiplasmodial activity against chloroquine-sensitive Plasmodium falciparum MRC-02 in human B+ erythrocytes assessed as inhibition of schizont maturation after 24 hrs by conventional parasite culture method; format: functional, organism-based; conditions: MRC-02, 24 h
Plasmodium falciparum [3] = experiment: Antiplasmodial activity against chloroquine-sensitive Plasmodium falciparum MRC-02 in human B+ erythrocytes assessed as inhibition of schizont maturation at 0.25 ug/mL after 24 hrs by conventional parasite culture method; format: functional; conditions: MRC-02, 24 h

SMILES: CC(=O)OC[C@@H]1CC[C@]2(C)C(C)=CC(=O)C[C@H]2[C@]1(C)CCC1=CCOC1=O
- IC50 (Plasmodium falciparum [1]): 3.2 µg/mL (≈ 8.55 µM)
- IC50 (Plasmodium falciparum [2]): 3.4 µg/mL (≈ 9.08 µM)

SMILES: CCN(CC)CCCC(C)Nc1ccnc2cc(Cl)ccc12 (stereo not given) [CHLOROQUINE]
- inhibition at 0.25 µg/mL (Plasmodium falciparum [3]): 100%

SMILES: CC1=CC(=O)C[C@H]2[C@](C)(CCC3=CCOC3=O)[C@H](CO)CC[C@]12C [GOMPHOSTENIN]
- IC50 (Plasmodium falciparum [1]): 37.7 µg/mL (≈ 113 µM)
- IC50 (Plasmodium falciparum [2]): 38.2 µg/mL (≈ 115 µM)
